The target in assay [1] is T1, Presenilin-associated rhomboid-like protein, mitochondrial (Homo sapiens, UniProt Q9H300).
T1 sequence (Q9H300 whole entry): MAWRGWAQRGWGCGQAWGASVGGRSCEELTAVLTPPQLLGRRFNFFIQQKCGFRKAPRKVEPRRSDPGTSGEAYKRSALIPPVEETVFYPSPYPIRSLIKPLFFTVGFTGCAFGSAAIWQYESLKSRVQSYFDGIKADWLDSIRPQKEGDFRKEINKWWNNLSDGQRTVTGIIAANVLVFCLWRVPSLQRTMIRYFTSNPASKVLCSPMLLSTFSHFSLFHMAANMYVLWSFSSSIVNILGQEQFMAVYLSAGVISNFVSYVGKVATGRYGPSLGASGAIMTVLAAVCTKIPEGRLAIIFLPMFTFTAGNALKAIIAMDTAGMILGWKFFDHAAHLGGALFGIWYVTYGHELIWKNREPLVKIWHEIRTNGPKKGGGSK
Kind of assay: Inhibition of PARL (unknown origin) using Ac-RRRAVFKLA-aminomethyl coumarin as substrate preincubated for 30 mins followed by substrate addition and measured after 20 mins by plate reader assay.

Assay [2] in a line: Inhibition of recombinant human RHBDL2 using Ac-PVAKA-7-amino-4-methylcoumarin-3-(N-octyl)-acetamide as substrate preincubated for 30 mins followed by substrate addition and measured after 20 mins by plate reader assay.
Assay [3] can be described thus: (§1) Inhibition of FLAG-tagged PARL (unknown origin) overexpressed in HEK293-T-REx cells assessed as reduction in substrate cleavage using PGAM5-Myc as substrate incubated for overnight by densitometry assay. In kind it is cell-based, Homo sapiens.
For a further assay, the system named is HEK293-T-REx. The assay is described as §1. To be noted: Homo sapiens. The format is cell-based.

The source made the active and inactive calls. No cut-off for these calls is given here.

In the case of `CCC1(CC)C(=O)N(c2ccc(CN3CCN(c4ccnc5ccc(Br)cc45)CC3)cc2)C1=O`, the IC50 turned out to be 0.26 µM in assay [1] and 35 µM in assay [2].

In the case of `CCC1(CC)C(=O)N(c2ccc(CN3CCN(c4cc(C)nc5ccc(Br)cc45)CC3)cc2)C1=O`, in assay [1], half-maximal inhibition (IC50) was put at 0.48 µM.

In turn, `CCC1(CC)C(=O)N(c2ccc(CN(Cc3ccccc3)Cc3ccccc3)cc2)C1=O` registered an IC50 in assay [1] of 0.15 µM. Besides, in assay [3], the EC50 is 0.3 µM.

For the compound `CCC1(Cc2ccccc2)C(=O)N(OS(=O)(=O)c2ccc(C)cc2)C1=O`, the inhibition entry with HEK293-T-REx is “inactive”.

With `CCC1(CC)C(=O)N(c2ccc(CN3CCN(C(c4ccc(F)cc4)c4ccc(F)cc4)CC3)cc2)C1=O`, in assay [1], the IC50 worked out at 2.6 µM.

Regarding `CCC1(CC)C(=O)N(c2cccc(CN3CCN(Cc4ccc(Br)cc4)CC3)c2)C1=O`, the half-inhibitory concentration (IC50) in assay [1] is 1 µM.

As for `CCC1(CC)C(=O)N(c2ccc(CN3CCN(c4ccc(OC)cc4)CC3)cc2)C1=O`, 0.38 µM corresponded to half-maximal inhibition in assay [1] (IC50).

Regarding `CCC1(CC)C(=O)N(c2ccc(CN3CCN(Cc4ccc(Br)cc4)CC3)cc2)C1=O`, the IC50 in assay [1] was found to be 1.43 µM; in assay [2], 1.9 µM.

On to `CCC1(CC)C(=O)N(c2cccc(CN3CCN(c4ccc(Br)cc4)CC3)c2)C1=O`, for which half-maximal inhibition in assay [1] (IC50) required 0.89 µM.

Take `CCC1(CC)C(=O)N(c2ccc(CN3CCc4cc5c(cc4C3)OCO5)cc2)C1=O`: in assay [1], the IC50 came out at 0.56 µM.

Turning to `CCC1(CC)C(=O)N(c2cccc(CN3CCN(Cc4ccc(OC)cc4)CC3)c2)C1=O`, it took 1.93 µM to reach half-maximal inhibition in assay [1] (IC50).

Compound `CCC1(CC)C(=O)N(Cc2ccc(C(=O)OCc3ccccc3)cc2)C1=O` displayed an IC50 in assay [1] of 0.16 µM. In addition, in assay [3], the EC50 came out at 0.22 µM.

For `CCC1(CC)C(=O)N(c2ccc(CN3CCN(c4ccc(Br)cc4)CC3)cc2)C1=O`, the values for the IC50 in assay [1] and in assay [2] were 0.49 µM and 21 µM, respectively.

A word on the IC50: it is the concentration that inhibits the measured activity by half. By EC50 is commonly meant the concentration giving half of the maximal effect.
